Data as given in ChEMBL document CHEMBL1201862, “PubChem BioAssay data set” (2004).
Active and inactive are the calls of the source.

How the values were obtained:
[1] = molecular target: FAD-linked sulfhydryl oxidase ALR (Homo sapiens, UniProt P55789); experiment: ALR-catalysed DTT oxidation blockers – biochemical, H2O2 detection, luminescence, cherry-pick, dose response (AID 493248)
[2] = Counterscreen for activators of the function of SWI/SNF related, matrix associated, actin dependent regulator of chromatin, subfamily a, member 2 (SMARCA2, BRM): Luminescence-based cell-based high throughput dose response assay to identify non-selective compounds using the VP16 reporter assay.; assay type: functional
[3] = molecular target: SWI/SNF-related matrix-associated actin-dependent regulator of chromatin subfamily A member 2 (Homo sapiens, UniProt P51531); experiment: Luminescence-based cell-based high throughput dose response assay to identify activators of the function of SWI/SNF related, matrix associated, actin dependent regulator of chromatin, subfamily a, member 2 (SMARCA2, BRM).; assay type: functional
[4] = non-specific 3'UTR reporter inhibition in Clone20-Shn3RL – cell-based, Renilla luciferase, cherry-picked, counter-screen for Shn3 inhibitor project, dose response (AID 624133); assay type: functional
[5] = loss of viability in HepG2 cells – cell-based, CellTiter-Glo, cherry-picked, cytotoxicity control for Shn3 inhibitor project, dose response (AID 624134); assay type: functional
[6] = reduction of Shn3 3'UTR-driven luciferase in osteoblasts – cell-based, Clone20 osteoblasts, firefly luciferase, cherry-picked, dose response (AID 624132); assay type: functional;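 further: firefly luciferase luminescence from reporter carrying the Shn3 3'UTR in osteoblasts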
[7] = molecular target: T1, Replicative DNA helicase DnaB (Mycobacterium tuberculosis, UniProt P9WMR3); experiment: DnaB intein splicing inhibitors, dose response, biochemical, cell-free fluorescence (AID 449749); assay type: functional
T1 sequence (P9WMR3 whole entry): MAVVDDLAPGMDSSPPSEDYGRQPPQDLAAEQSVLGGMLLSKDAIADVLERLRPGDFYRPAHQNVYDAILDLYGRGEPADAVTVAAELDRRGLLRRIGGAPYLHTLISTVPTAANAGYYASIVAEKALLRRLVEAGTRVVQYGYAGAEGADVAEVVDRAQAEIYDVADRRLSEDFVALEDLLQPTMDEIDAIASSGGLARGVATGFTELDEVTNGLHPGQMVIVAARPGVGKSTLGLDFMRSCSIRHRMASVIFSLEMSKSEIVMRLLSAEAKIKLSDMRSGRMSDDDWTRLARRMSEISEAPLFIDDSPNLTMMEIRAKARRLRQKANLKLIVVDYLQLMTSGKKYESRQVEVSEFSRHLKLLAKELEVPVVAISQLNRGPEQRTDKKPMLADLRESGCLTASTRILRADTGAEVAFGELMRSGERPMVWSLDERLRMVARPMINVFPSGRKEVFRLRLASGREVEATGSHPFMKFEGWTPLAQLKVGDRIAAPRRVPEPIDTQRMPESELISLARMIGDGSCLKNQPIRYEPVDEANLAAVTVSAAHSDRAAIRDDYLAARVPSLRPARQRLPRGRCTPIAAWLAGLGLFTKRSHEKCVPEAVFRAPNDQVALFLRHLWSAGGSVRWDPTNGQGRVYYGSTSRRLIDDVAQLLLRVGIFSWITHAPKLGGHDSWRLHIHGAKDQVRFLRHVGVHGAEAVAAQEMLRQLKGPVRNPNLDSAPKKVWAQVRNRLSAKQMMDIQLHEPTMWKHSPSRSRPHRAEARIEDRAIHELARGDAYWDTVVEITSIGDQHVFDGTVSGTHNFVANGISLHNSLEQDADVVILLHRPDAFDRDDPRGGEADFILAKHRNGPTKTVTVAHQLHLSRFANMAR

[8] = molecular target: Beta Lactamase (Pseudomonas aeruginosa, UniProt Q932Y6); experiment: BLA reporter interference, concentration series – BLA reporter cells, FRET fluorescence, artefact control for NOD2-RIPK2 interaction inhibitor project, dose response (AID 651552); assay type: functional, cell-based
[9] = molecular target: T2, Protein RecA (Mycobacterium tuberculosis, UniProt P9WHJ3); experiment: Fluorescence Cell-Free Homogeneous Dose Retest to Identify Inhibitors of RecA-Intein Splicing Activity. [Related pubchem assays (depositor defined):AID2097, AID2223, AID489010, AID492950]; assay type: functional
T2 sequence (P9WHJ3 whole entry): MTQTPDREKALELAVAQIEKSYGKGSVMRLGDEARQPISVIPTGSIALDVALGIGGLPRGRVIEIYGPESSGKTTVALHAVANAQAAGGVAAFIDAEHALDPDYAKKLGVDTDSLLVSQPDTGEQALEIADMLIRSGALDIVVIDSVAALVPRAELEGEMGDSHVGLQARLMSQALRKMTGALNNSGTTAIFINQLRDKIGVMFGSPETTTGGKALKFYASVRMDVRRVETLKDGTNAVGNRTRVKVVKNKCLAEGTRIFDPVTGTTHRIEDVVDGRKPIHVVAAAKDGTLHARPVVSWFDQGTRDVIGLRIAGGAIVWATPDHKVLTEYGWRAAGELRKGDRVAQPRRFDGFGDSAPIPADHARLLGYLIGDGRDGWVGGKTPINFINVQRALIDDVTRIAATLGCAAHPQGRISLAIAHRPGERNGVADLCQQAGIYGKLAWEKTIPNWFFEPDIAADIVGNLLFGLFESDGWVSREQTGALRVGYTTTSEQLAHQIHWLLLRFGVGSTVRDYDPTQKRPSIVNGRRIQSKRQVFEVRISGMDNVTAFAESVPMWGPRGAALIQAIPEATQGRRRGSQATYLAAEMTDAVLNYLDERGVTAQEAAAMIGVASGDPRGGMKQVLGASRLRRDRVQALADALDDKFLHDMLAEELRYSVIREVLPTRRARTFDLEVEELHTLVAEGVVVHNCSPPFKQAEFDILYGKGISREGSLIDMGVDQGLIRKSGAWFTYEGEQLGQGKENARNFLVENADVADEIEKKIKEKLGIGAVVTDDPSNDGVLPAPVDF

[10] = Fluorescence-based cell-based high throughput dose response assay for inhibitors of the interaction of nucleotide-binding oligomerization domain containing 2 (NOD2) and the receptor-interacting serine-threonine kinase 2 (RIPK2).; assay type: functional; settings: Homo sapiens
[11] = cells; assay type: functional, cell-based
[12] = molecular target: T3, Protein Wnt-3a (Mus musculus, UniProt P27467); experiment: SAR analysis of small molecule antagonists of Gli-SUFU in a Wnt3a luminescent reporter assay.; assay type: functional
[13] = molecular target: T3, Protein Wnt-3a; experiment: antagonism of Wnt3a pathway luciferase reporter – Wnt-LIGHT cells, luminescence, selectivity assay for Gli-SUFU antagonist project, dose response (AID 651570); assay type: functional; settings: read-out: IC50_Mean;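 further: Wnt-LIGHT reporter cells stimulated with conditioned medium from Wnt3a-producing cells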
[14] = HEK-293T cell viability reduction – luminescence, B-cell screen hits, cytotoxicity control for BCR NF-kB inhibitor project, dose response (AID 489021); assay type: functional, cell-based;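 further: HEK-293T cells carrying an NF-kB luciferase reporter; cells exposed to compound for about 14 hours before viability readout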
[15] = system: Vero; experiment: viability of Vero cells under compound – cytotoxicity control for flavivirus capping enzyme inhibitors (AID 588742); assay type: functional; settings: Chlorocebus sabaeus
[16] = molecular target: T4, Rac GTPase-activating protein 1 (Homo sapiens, UniProt Q9H0H5); experiment: blockers of MgcRacGAP-driven Rac1 GTP hydrolysis – biochemical, ADP Hunter fluorescence, primary and confirmatory, confirmation (AID 624330); assay type: functional
T4 sequence (Q9H0H5 whole entry): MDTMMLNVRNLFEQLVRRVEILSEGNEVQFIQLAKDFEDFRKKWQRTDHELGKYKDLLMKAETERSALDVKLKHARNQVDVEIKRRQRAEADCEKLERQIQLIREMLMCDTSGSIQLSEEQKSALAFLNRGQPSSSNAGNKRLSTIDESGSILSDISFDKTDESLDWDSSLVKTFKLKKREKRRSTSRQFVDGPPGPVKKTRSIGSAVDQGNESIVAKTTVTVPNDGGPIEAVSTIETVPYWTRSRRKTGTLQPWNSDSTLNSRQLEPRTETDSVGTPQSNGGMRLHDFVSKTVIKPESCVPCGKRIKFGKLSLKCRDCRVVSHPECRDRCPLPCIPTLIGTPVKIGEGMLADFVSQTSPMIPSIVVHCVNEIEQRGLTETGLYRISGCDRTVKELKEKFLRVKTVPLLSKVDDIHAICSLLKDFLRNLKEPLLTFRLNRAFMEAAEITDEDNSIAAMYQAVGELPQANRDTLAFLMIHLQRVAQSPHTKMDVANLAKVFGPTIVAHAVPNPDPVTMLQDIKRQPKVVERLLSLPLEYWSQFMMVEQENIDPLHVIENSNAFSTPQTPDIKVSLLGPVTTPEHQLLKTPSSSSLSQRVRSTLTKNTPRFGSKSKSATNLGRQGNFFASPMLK

[17] = molecular target: Heat shock protein HSP 90-alpha (Homo sapiens, UniProt P07900); assay type: functional, organism-based
[18] = molecular target: Photoreceptor-specific nuclear receptor (Homo sapiens, UniProt Q9Y5X4); assay type: functional, cell-based;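 further: CHO-S cells with Gal4-NCOR and VP16-NR2E3 two-hybrid luciferase reporter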
[19] = molecular target: Glucose-6-phosphate 1-dehydrogenase (Homo sapiens, UniProt P11413); experiment: inhibition of Homo sapiens G6PD, dose series – biochemical, fluorescence, selectivity assay for P. falciparum G6PD inhibitor project, dose response (AID 504792); assay type: functional
[20] = viability loss in HeLa cells – cytotoxicity control for MgcRacGAP inhibitor project, dose response (AID 624300); assay type: functional
[21] = molecular target: Genome polyprotein (dengue virus type 2, UniProt P29990); experiment: flavivirus cap methylation enzyme inhibition – biochemical, confirmation dose response, primary screen (AID 588689); assay type: functional
[22] = viability loss in HEK293T cells – cell-based, cherry-picks, cytotoxicity control for HIV Vif inhibitor project, dose response (AID 652208); assay type: functional
[23] = OVCAR-3 cell viability loss – plate reader, dry powder samples, PAX8 inhibitor project, dose response (AID 743044); assay type: functional, cell-based
[24] = molecular target: Paired box protein Pax-8 (Homo sapiens, UniProt Q06710); experiment: PAX8 transcriptional activity inhibition in RMG-I – RMG-I cells, luciferase, cherry-pick, dose response (AID 687027); assay type: functional, cell-based;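 further: luciferase reporter driven by Pax8 target thyroperoxidase promoter measured by SteadyGlo luminescence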
[25] = mouse fibroblast viability loss – cell-based, cherry-pick samples, set 2, cytotoxicity control for T. cruzi growth inhibitor project, dose response (AID 651817); assay type: functional; settings: NIH3T3
[26] = IGROV1 cell killing – plate reader, dry powder samples, PAX8 inhibitor project, dose response (AID 743043); assay type: functional, cell-based; settings: IGROV-1
[27] = general cell-killing toxicity readout – plate reader, dry powder samples, cytotoxicity control for PAX8 inhibitor project, dose response (AID 743021); assay type: functional, cell-based
[28] = general mammalian cell viability loss – activator set, cherry-pick, cytotoxicity control for miR-122 modulator project, dose response (AID 720690); assay type: functional, cell-based;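 further: HEK293T human cells scored for general mammalian cytotoxicity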
[29] = activation of miR-122 Renilla sensor silencing – cell-based, Huh7 psiCHECK-miR122, Renilla luciferase, cherry-picked, dose response (AID 651956); assay type: functional;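 further: huh7 hepatoma cells stably carrying a psiCHECK-2 miR-122 sensor plasmid; renilla luciferase signal reporting endogenous miR-122 activity after 48 h compound exposure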
[30] = OVCAR8 cell viability loss – plate reader, dry powder samples, PAX8 project, dose response (AID 743197); assay type: functional, cell-based; settings: OVCAR-8
[31] = CMV-driven luciferase expression suppression in HEK293 – cell-based, luminescence, dry powder, counter-screen for Pax8 inhibitor project, dose response (AID 743020); assay type: functional

T3 sequence (P27467 whole entry): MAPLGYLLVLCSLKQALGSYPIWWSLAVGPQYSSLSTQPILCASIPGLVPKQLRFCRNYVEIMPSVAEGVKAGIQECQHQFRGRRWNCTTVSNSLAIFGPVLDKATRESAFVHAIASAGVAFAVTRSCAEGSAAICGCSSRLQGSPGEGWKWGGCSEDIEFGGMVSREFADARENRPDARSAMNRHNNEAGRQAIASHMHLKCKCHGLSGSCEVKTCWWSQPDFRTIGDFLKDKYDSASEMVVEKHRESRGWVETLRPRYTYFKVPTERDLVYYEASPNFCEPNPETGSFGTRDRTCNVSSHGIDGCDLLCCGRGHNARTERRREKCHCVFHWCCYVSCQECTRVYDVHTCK
Sequence of Paired box protein Pax-8 (Q06710 whole entry): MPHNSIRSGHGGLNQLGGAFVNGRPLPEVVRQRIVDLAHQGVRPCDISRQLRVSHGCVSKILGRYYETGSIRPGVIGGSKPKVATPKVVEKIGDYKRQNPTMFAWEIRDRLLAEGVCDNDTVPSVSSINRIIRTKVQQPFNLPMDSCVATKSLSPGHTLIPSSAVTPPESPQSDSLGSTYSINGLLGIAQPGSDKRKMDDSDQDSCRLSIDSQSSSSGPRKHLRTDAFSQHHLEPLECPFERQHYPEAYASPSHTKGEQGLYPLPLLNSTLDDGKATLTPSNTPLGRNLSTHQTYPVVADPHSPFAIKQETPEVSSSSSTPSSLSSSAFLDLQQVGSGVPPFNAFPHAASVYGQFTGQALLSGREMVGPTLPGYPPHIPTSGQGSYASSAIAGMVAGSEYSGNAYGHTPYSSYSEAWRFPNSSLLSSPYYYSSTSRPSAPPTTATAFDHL
Sequence of SWI/SNF-related matrix-associated actin-dependent regulator of chromatin subfamily A member 2 (P51531 whole entry): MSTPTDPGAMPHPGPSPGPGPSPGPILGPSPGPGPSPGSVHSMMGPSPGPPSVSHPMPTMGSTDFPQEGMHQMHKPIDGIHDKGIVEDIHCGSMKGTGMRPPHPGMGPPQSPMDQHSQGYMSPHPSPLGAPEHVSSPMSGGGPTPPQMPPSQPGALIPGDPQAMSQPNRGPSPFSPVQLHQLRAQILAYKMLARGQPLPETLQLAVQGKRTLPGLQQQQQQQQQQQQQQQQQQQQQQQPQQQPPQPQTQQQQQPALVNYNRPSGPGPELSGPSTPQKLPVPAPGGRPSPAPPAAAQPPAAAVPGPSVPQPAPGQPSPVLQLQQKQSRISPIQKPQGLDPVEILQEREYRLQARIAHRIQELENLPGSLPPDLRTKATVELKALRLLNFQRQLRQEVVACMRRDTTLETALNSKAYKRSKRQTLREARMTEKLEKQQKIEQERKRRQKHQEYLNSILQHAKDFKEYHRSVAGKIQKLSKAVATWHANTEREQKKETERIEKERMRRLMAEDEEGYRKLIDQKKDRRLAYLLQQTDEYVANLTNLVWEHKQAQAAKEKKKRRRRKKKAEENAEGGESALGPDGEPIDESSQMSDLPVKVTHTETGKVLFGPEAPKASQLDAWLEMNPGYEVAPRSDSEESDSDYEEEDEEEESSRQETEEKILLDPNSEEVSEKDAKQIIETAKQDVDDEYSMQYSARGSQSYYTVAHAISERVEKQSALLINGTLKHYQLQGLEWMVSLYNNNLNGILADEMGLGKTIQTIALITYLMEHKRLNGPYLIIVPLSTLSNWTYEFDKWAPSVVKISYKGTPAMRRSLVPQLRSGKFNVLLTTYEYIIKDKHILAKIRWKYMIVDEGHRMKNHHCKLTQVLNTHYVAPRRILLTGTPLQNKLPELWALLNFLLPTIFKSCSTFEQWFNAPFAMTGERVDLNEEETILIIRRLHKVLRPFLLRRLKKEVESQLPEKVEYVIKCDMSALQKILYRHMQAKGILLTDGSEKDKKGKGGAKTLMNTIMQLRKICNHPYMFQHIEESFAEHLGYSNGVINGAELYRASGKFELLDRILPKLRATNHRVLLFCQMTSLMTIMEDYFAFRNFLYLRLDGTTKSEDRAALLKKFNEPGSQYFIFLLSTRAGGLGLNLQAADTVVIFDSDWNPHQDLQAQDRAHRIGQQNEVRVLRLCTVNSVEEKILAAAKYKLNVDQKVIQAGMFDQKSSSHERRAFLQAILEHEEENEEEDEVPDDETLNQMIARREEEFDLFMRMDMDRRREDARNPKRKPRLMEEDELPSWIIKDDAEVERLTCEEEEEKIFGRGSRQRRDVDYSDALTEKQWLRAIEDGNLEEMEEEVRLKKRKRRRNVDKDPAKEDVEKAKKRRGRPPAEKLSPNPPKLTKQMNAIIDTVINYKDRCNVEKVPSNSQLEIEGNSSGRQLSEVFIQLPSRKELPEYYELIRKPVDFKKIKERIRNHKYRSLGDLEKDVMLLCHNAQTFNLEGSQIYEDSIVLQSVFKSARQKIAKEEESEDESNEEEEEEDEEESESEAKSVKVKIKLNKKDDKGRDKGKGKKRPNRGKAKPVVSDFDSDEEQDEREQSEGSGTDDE
Sequence of Beta Lactamase (Q932Y6 whole entry): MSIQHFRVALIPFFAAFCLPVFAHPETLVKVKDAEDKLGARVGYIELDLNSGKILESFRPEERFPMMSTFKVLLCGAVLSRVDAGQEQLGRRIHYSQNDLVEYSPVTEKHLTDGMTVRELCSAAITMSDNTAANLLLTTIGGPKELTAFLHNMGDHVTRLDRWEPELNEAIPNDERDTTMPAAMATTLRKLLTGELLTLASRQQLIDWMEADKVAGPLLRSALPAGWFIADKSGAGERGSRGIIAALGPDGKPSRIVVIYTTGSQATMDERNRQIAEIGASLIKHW
Sequence of Genome polyprotein (P29990 2492-3391 limits assumed): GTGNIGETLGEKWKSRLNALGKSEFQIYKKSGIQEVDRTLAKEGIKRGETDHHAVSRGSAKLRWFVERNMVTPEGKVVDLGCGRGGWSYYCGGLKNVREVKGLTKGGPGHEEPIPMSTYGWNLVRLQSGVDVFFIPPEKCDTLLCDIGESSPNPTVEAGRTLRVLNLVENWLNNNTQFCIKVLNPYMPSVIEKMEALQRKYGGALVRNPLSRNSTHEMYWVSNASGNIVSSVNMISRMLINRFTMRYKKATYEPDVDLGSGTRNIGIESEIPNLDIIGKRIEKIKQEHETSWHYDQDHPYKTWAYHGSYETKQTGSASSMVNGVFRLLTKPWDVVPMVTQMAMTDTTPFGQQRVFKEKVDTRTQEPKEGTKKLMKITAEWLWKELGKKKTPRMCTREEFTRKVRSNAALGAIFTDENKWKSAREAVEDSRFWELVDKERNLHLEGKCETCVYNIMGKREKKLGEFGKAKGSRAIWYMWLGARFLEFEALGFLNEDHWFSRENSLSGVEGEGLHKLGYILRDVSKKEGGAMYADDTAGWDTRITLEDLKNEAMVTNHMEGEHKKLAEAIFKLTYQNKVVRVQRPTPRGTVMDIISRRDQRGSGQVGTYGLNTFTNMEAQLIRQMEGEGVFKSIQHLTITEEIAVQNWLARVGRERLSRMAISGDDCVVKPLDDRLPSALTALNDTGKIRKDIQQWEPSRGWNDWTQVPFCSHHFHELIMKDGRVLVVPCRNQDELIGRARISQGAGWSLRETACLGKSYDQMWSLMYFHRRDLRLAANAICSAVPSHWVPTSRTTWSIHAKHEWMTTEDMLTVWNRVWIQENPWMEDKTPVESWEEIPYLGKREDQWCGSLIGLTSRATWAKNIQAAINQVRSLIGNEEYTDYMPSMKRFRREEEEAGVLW
Sequence of Photoreceptor-specific nuclear receptor (Q9Y5X4 whole entry, the tested form may be a part): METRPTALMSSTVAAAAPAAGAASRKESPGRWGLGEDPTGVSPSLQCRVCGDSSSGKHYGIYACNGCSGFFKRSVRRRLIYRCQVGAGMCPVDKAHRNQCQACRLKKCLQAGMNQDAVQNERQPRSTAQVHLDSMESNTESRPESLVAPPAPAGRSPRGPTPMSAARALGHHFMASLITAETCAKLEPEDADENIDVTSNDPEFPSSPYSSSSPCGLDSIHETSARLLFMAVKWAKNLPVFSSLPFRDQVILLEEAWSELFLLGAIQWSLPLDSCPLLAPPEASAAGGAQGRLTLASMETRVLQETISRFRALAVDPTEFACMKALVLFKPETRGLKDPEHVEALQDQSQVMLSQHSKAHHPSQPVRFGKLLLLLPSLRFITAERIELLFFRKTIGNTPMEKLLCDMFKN
Sequence of Glucose-6-phosphate 1-dehydrogenase (P11413 whole entry): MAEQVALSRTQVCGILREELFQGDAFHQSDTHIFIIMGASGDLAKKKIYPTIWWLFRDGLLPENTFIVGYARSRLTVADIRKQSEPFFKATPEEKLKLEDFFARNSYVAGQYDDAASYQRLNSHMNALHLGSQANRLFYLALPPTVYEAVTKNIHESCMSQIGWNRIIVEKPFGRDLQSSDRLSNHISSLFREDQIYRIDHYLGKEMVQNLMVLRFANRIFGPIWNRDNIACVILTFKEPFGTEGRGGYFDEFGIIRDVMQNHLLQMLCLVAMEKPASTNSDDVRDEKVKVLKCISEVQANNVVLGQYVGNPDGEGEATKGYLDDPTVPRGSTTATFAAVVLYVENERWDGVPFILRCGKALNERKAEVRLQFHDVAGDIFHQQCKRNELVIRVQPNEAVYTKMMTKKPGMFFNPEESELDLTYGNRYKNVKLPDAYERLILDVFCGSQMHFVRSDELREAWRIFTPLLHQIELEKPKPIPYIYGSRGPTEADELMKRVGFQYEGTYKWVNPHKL
Sequence of FAD-linked sulfhydryl oxidase ALR (P55789 whole entry): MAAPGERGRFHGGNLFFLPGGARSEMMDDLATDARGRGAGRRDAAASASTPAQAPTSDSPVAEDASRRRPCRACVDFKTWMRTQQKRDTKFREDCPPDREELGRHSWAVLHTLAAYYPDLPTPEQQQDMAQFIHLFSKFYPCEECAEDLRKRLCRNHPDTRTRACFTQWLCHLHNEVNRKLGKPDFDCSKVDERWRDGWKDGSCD

SMILES: CN(C)P(=O)(C(Cl)=C(N1CCCCC1)N1CCCCC1)N(C)C
- AC50 [1]: 41.1 µM (active)
- EC50 [2]: > 91.1 µM (inactive)
- EC50 [3]: > 91.1 µM (inactive)

SMILES: COc1ccc(CNC(=O)c2nc(S(=O)(=O)Cc3ccccc3)ncc2Cl)cc1
- AC50 [4]: 7.01 µM (active)
- AC50 [5]: 30.8 µM (active)
- AC50 [6]: 956 nM (active)
- AC50 [7]: 4.17 µM (active)
- IC50 [8]: 21 µM (inactive)
- EC50 [9]: 4.07 µM (active)
- IC50 [10]: 2.96 µM (active)

SMILES: CCc1nnc(NS(=O)(=O)c2ccc(NC=C3C(=O)CC(C)(C)CC3=O)cc2)s1
- IC50 [11]: 60.8 µM (inactive)

SMILES: CCOc1ccc(S(=O)(=O)NCc2ccncc2)cc1NC(=O)c1ccccc1
- IC50 [12]: > 21.8 µM (inactive)
- IC50 [13]: 33.2 µM (inactive)
- IC50 [14]: > 80 µM (inactive)

SMILES: CCc1nc(C)cc2c1sc1ccccc12
- EC50 [2]: > 91.2 µM (inactive)
- EC50 [3]: > 91.2 µM (inactive)

SMILES: O=C1NC(=O)N(c2ccc(Cl)cc2)C(=O)/C1=C\Nc1ccc(S(=O)(=O)Nc2nccs2)cc1
- IC50 [11]: 74.7 µM (inactive)

SMILES: O=C1/C(=C\c2ccc([N+](=O)[O-])cc2)CS(=O)(=O)C/C1=C/c1ccc([N+](=O)[O-])cc1
- CC50 [15]: 460 nM (active)
- IC50 [16]: 24.8 µM (active)
- AC50 [17]: 353 nM (active)
- IC50 [8]: 36.4 µM (inactive)
- IC50 [18]: 2 µM (active)
- IC50 [19]: > 80 µM (inactive)
- IC50 [10]: 0.93 µM (active)
- CC50 [20]: 25 µM (active)
- IC50 [21]: > 100 µM (active)

SMILES: O=C(c1cc(-c2ccncc2)nc2ccccc12)N1CCN(Cc2ccccc2)CC1
- AC50 [22]: > 52 µM (inactive)

SMILES: Cc1ccc(S(=O)(=O)Nc2ccc3c(c2)CC(=O)N([C@@H](C)CO)C[C@@H](C)[C@H](CN(C)Cc2ccc(Cl)c(Cl)c2)O3)cc1
- AC50 [23]: 31.8 µM (active)
- AC50 [24]: 5.67 µM (active)
- AC50 [25]: 12.3 µM (active)
- AC50 [26]: 49.9 µM (active)

SMILES: COc1cc(C=C2C(=O)C=CC2=O)ccc1O
- AC50 [27]: 19.1 µM (active)
- AC50 [24]: 1.63 µM (active)

SMILES: CN1C(=O)c2cc(NS(=O)(=O)c3ccc(Cl)cc3)ccc2OC[C@@H]2O[C@H](CC(=O)N3CCc4ccccc4C3)CC[C@H]21
- AC50 [28]: 46.9 µM (active)
- AC50 [29]: 19.1 µM (active)

SMILES: C[C@H](CO)N1C[C@H](C)[C@H](CN(C)Cc2ccc(Cl)c(Cl)c2)Oc2ccc(NS(=O)(=O)c3ccc(F)cc3)cc2CC1=O
- AC50 [25]: 9.99 µM (active)

SMILES: COc1ccc(NC(=O)N(C)C[C@H]2OCCCC[C@@H](C)Oc3ccc(NC(=O)Nc4ccc(C(F)(F)F)cc4)cc3C(=O)N([C@@H](C)CO)C[C@@H]2C)cc1
- AC50 [23]: 24 µM (active)
- AC50 [30]: > 70 µM (inactive)
- AC50 [31]: 41 µM (active)
- AC50 [24]: 3.41 µM (active)

SMILES: CC(C)CNc1cc(NC(=O)c2ccccc2)ncn1
- IC50 [12]: > 21.8 µM (inactive)
